Data taken from the supplement of paper PMC10307832.

Assays:
Experiment in all cases: relative viability (nuclei count vs DMSO), 5 days (fraction); higher = more cells survive
NCI-H1355 = test system: NCI-H1355
Method in brief: (§1)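 Values are medians from duplicate plates. Each reflects relative viability, defined as the nuclei count of treated wells over that of vehicle wells. Lung cancer cell lines in 1536-well plates were pin-tool dosed one day after seeding with one drug alone or with a fixed anchor-drug dose plus five library-drug doses (not always all listed) in √10 steps, then fixed, stained and imaged at 4× after 5 days.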

ABC-1 = test system: ABC-1
Method in brief: as §1

NCI-H1993 = test system: NCI-H1993
Method in brief: as §1

CAL-12T = test system: CAL-12T
Method in brief: as §1

201T = test system: 201T
Method in brief: as §1

NCI-H322M = test system: NCI-H322M
Method in brief: as §1

NCI-H2170 = test system: NCI-H2170
Method in brief: as §1

HCC-44 = test system: HCC-44
Method in brief: as §1

NCI-H647 = test system: NCI-H647
Method in brief: as §1

NCI-H1395 = test system: NCI-H1395
Method in brief: as §1

NCI-H661 = test system: NCI-H661
Method in brief: as §1

NCI-H2347 = test system: NCI-H2347
Method in brief: as §1

COR-L23 = test system: COR-L23
Method in brief: as §1

LC-2-ad = test system: LC-2-ad
Method in brief: as §1

HOP-62 = test system: HOP-62
Method in brief: as §1

NCI-H520 = test system: NCI-H520
Method in brief: as §1

NCI-H2228 = test system: NCI-H2228
Method in brief: as §1

NCI-H1651 = test system: NCI-H1651
Method in brief: as §1

NCI-H2085 = test system: NCI-H2085
Method in brief: as §1

NCI-H838 = test system: NCI-H838
Method in brief: as §1

NCI-H1666 = test system: NCI-H1666
Method in brief: as §1

NCI-H23 = test system: NCI-H23
Method in brief: as §1

O=C(O)CCCCC(CCSCc1ccccc1)SCc1ccccc1 (stereo not given) [CPI-613] + CS(=O)(=O)CCNCc1ccc(-c2ccc3ncnc(Nc4ccc(OCc5cccc(F)c5)c(Cl)c4)c3c2)o1 [Lapatinib] (partner 2 µM)
relative viability (NCI-H1355; first compound 5 µM): 1.02 | relative viability (NCI-H1355; first compound 15.81 µM): 0.872 | relative viability (NCI-H1355; first compound 50 µM): 0.979 | relative viability (NCI-H1355; first compound 158.11 µM): 0.642 | relative viability (NCI-H1355; first compound 500 µM): 0.589 | relative viability (ABC-1; first compound 5 µM): 1 | relative viability (ABC-1; first compound 15.81 µM): 0.948 | relative viability (ABC-1; first compound 50 µM): 1.33 | relative viability (ABC-1; first compound 158.11 µM): 1.27 | relative viability (ABC-1; first compound 500 µM): 1.57 | relative viability (NCI-H1993; first compound 5 µM): 0.777 | relative viability (NCI-H1993; first compound 15.81 µM): 0.706 | relative viability (NCI-H1993; first compound 50 µM): 0.774 | relative viability (NCI-H1993; first compound 158.11 µM): 0.567 | relative viability (NCI-H1993; first compound 500 µM): 0.41 | relative viability (CAL-12T; first compound 5 µM): 0.605 | relative viability (CAL-12T; first compound 15.81 µM): 0.532 | relative viability (CAL-12T; first compound 50 µM): 0.603 | relative viability (CAL-12T; first compound 158.11 µM): 0.551 | relative viability (CAL-12T; first compound 500 µM): 0.56 | relative viability (201T; first compound 5 µM): 1.09 | relative viability (201T; first compound 15.81 µM): 0.958 | relative viability (201T; first compound 50 µM): 0.953 | relative viability (201T; first compound 158.11 µM): 0.978 | relative viability (201T; first compound 500 µM): 0.972 | relative viability (NCI-H322M; first compound 5 µM): 0.577 | relative viability (NCI-H322M; first compound 15.81 µM): 0.485 | relative viability (NCI-H322M; first compound 50 µM): 0.572 | relative viability (NCI-H322M; first compound 158.11 µM): 0.552 | relative viability (NCI-H322M; first compound 500 µM): 0.707 | relative viability (NCI-H2170; first compound 5 µM): 0.259 | relative viability (NCI-H2170; first compound 15.81 µM): 0.273 | relative viability (NCI-H2170; first compound 50 µM): 0.249 | relative viability (NCI-H2170; first compound 158.11 µM): 0.261 | relative viability (NCI-H2170; first compound 500 µM): 0.188 | relative viability (HCC-44; first compound 5 µM): 0.991 | relative viability (HCC-44; first compound 15.81 µM): 0.937 | relative viability (HCC-44; first compound 50 µM): 1.04 | relative viability (HCC-44; first compound 158.11 µM): 0.838 | relative viability (HCC-44; first compound 500 µM): 0.0306 | relative viability (NCI-H647; first compound 5 µM): 0.962 | relative viability (NCI-H647; first compound 15.81 µM): 0.698 | relative viability (NCI-H647; first compound 50 µM): 0.757 | relative viability (NCI-H647; first compound 158.11 µM): 0.27 | relative viability (NCI-H647; first compound 500 µM): 0.0102 | relative viability (NCI-H1395; first compound 5 µM): 1.01 | relative viability (NCI-H1395; first compound 15.81 µM): 0.91 | relative viability (NCI-H1395; first compound 50 µM): 1.08 | relative viability (NCI-H1395; first compound 158.11 µM): 0.773 | relative viability (NCI-H1395; first compound 500 µM): 0.894 | relative viability (NCI-H661; first compound 5 µM): 0.419 | relative viability (NCI-H661; first compound 15.81 µM): 0.367 | relative viability (NCI-H661; first compound 50 µM): 0.581 | relative viability (NCI-H661; first compound 158.11 µM): 0.49 | relative viability (NCI-H661; first compound 500 µM): 0.576 | relative viability (NCI-H2347; first compound 5 µM): 0.986 | relative viability (NCI-H2347; first compound 15.81 µM): 0.846 | relative viability (NCI-H2347; first compound 50 µM): 0.762 | relative viability (NCI-H2347; first compound 158.11 µM): 0.563 | relative viability (NCI-H2347; first compound 500 µM): 0.766 | relative viability (COR-L23; first compound 5 µM): 0.826 | relative viability (COR-L23; first compound 15.81 µM): 0.969 | relative viability (COR-L23; first compound 50 µM): 0.746 | relative viability (COR-L23; first compound 158.11 µM): 0.459 | relative viability (COR-L23; first compound 500 µM): 0.0098 | relative viability (LC-2-ad; first compound 5 µM): 0.746 | relative viability (LC-2-ad; first compound 15.81 µM): 0.859 | relative viability (LC-2-ad; first compound 50 µM): 0.868 | relative viability (LC-2-ad; first compound 158.11 µM): 0.255 | relative viability (LC-2-ad; first compound 500 µM): 0.0059 | relative viability (HOP-62; first compound 5 µM): 1.06 | relative viability (HOP-62; first compound 15.81 µM): 0.855 | relative viability (HOP-62; first compound 50 µM): 0.935 | relative viability (HOP-62; first compound 158.11 µM): 0.804 | relative viability (HOP-62; first compound 500 µM): 0.107 | relative viability (NCI-H520; first compound 5 µM): 0.887 | relative viability (NCI-H520; first compound 15.81 µM): 0.634 | relative viability (NCI-H520; first compound 50 µM): 0.912 | relative viability (NCI-H520; first compound 158.11 µM): 0.264 | relative viability (NCI-H520; first compound 500 µM): 0.103 | relative viability (NCI-H2228; first compound 5 µM): 0.817 | relative viability (NCI-H2228; first compound 15.81 µM): 0.979 | relative viability (NCI-H2228; first compound 50 µM): 0.832 | relative viability (NCI-H2228; first compound 158.11 µM): 0.406 | relative viability (NCI-H2228; first compound 500 µM): 0.0151 | relative viability (NCI-H1651; first compound 5 µM): 0.732 | relative viability (NCI-H1651; first compound 15.81 µM): 0.71 | relative viability (NCI-H1651; first compound 50 µM): 0.781 | relative viability (NCI-H1651; first compound 158.11 µM): 0.312 | relative viability (NCI-H1651; first compound 500 µM): 0.0775 | relative viability (NCI-H2085; first compound 5 µM): 0.813 | relative viability (NCI-H2085; first compound 15.81 µM): 0.728 | relative viability (NCI-H2085; first compound 50 µM): 0.709 | relative viability (NCI-H2085; first compound 158.11 µM): 0.674 | relative viability (NCI-H2085; first compound 500 µM): 0.516 | relative viability (NCI-H838; first compound 5 µM): 0.862 | relative viability (NCI-H838; first compound 15.81 µM): 0.783 | relative viability (NCI-H838; first compound 50 µM): 0.846 | relative viability (NCI-H838; first compound 158.11 µM): 0.601 | relative viability (NCI-H838; first compound 500 µM): 0.0634 | relative viability (NCI-H1666; first compound 5 µM): 0.629 | relative viability (NCI-H1666; first compound 15.81 µM): 0.555 | relative viability (NCI-H1666; first compound 50 µM): 0.656 | relative viability (NCI-H1666; first compound 158.11 µM): 0.162 | relative viability (NCI-H1666; first compound 500 µM): 0.109 | relative viability (NCI-H23; first compound 5 µM): 0.95 | relative viability (NCI-H23; first compound 15.81 µM): 0.812 | relative viability (NCI-H23; first compound 50 µM): 0.873 | relative viability (NCI-H23; first compound 158.11 µM): 0.261 | relative viability (NCI-H23; first compound 500 µM): 0.0192
